Usually IC50 stands for the concentration needed to halve the response being measured.

The target of this experiment is CDK-activating kinase assembly factor MAT1/Cyclin-H/Cyclin-dependent kinase 7 (Homo sapiens, UniProt P50613). Kind of experiment: In Vitro Kinase assay (CDK7) and IC 50 determination. The protocol: The kinase assay was carried out by Sundia MediTech Co., Ltd.
Chain of CDK-activating kinase assembly factor MAT1/Cyclin-H/Cyclin-dependent kinase 7 (P51946 whole entry): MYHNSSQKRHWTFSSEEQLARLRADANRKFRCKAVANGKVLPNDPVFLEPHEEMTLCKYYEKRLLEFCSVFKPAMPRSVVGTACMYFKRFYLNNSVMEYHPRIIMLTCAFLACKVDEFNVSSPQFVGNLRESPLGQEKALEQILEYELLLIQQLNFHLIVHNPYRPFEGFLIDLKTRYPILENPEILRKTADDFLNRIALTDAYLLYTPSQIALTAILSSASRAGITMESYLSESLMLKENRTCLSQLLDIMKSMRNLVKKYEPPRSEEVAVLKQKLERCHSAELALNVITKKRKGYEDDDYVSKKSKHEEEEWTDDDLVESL
Chain of CDK-activating kinase assembly factor MAT1/Cyclin-H/Cyclin-dependent kinase 7 (P50613 whole entry): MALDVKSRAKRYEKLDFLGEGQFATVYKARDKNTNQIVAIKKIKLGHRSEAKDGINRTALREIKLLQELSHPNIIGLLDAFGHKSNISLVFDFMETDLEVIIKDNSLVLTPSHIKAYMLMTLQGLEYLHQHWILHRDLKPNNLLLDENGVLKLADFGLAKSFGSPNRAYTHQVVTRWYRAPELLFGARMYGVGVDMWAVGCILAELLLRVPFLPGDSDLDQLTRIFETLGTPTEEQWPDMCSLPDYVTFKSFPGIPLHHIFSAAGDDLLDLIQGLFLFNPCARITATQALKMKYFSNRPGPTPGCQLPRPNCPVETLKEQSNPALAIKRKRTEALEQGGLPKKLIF
Chain of CDK-activating kinase assembly factor MAT1/Cyclin-H/Cyclin-dependent kinase 7 (P51948 whole entry, further chain): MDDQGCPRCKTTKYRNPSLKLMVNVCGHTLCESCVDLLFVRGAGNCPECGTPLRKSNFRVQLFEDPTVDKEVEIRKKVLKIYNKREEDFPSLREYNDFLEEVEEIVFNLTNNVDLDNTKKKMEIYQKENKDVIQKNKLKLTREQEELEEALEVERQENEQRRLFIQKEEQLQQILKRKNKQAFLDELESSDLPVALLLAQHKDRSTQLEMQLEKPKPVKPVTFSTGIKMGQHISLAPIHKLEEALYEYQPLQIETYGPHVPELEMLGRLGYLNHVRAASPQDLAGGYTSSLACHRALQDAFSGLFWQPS
The compound `CC(C)c1cnn2c(NCc3ccnn3C3CC3)cc(NC[C@H]3CCNC[C@@H]3O)nc12` [WO2023001061, Example 11] came in with an IC50 of less than 50 nM.

As to `CC(C)c1cnn2c(NCc3nccs3)cc(NC[C@H]3CCNC[C@@H]3O)nc12` [WO2023001061, Example 31], the IC50 is less than 50 nM.

`CC(C)c1cnn2c(NCc3nc4cc(C(F)(F)F)ccc4s3)cc(NC[C@H]3CCNC[C@@H]3O)nc12` [WO2023001061, Example 38] displayed an IC50 of less than 50 nM.

With `CC(C)c1cnn2c(NCc3nc4cc(N(C)C)ccc4s3)cc(NC[C@H]3CCNC[C@@H]3O)nc12` [WO2023001061, Example 4], the IC50 is less than 50 nM.

`CC(C)c1cnn2c(NCc3nn(C)c4ccccc34)cc(NC[C@H]3CCNC[C@@H]3O)nc12` [WO2023001061, Example 35] came in with an IC50 of less than 50 nM.

Consider `CC(C)c1cnn2c(NCc3ccnn3C(C)C)cc(NC[C@H]3CCNC[C@@H]3O)nc12` [WO2023001061, Example 10], for which the IC50 is less than 50 nM.

As for `CC(C)c1cnn2c(NCc3ccn[nH]3)cc(NC[C@H]3CCNC[C@@H]3O)nc12` [WO2023001061, Example 9], the IC50 was less than 50 nM.

In turn, `CC(C)c1cnn2c(NCc3nccn3C)cc(NC[C@H]3CCNC[C@@H]3O)nc12` [WO2023001061, Example 14] displayed an IC50 of less than 50 nM.

Take `CC(C)c1cnn2c(NCc3nc4cc(Cl)ccc4s3)cc(NC[C@H]3CCNC[C@@H]3O)nc12` [WO2023001061, Example 39]: the IC50 is less than 50 nM.

Turning to `CC(C)c1cnn2c(NCc3ccc4cccc(N(C)C)c4n3)cc(NC[C@H]3CCNC[C@@H]3O)nc12` [WO2023001061, Example 5], the IC50 is less than 50 nM.

`CC(C)c1cnn2c(NCc3nc4ccccc4n3C)cc(NC[C@H]3CCNC[C@@H]3O)nc12` [WO2023001061, Example 36] showed an IC50 of less than 50 nM.

The compound `CC(C)c1cnn2c(NCc3cncn3C)cc(NC[C@H]3CCNC[C@@H]3O)nc12` [WO2023001061, Example 13] returned an IC50 of less than 50 nM.

In the case of `CC(C)c1cnn2c(NCc3cccnc3N(C)C)cc(NC[C@H]3CCNC[C@@H]3O)nc12` [WO2023001061, Example 15], the IC50 was less than 50 nM.

For the compound `CC(C)c1cnn2c(NCC3CCCN3C)cc(NC[C@H]3CCNC[C@@H]3O)nc12` (stereo not given in full) [WO2023001061, Example 2], the IC50 was less than 50 nM.

As to `CC(C)c1cnn2c(NCc3ccnn3C)nc(OC3CCN(C)CC3)nc12` [WO2023001061, Example 26], the IC50 was less than 50 nM.

Consider `CC(C)c1cnn2c(NCc3ccn(C)n3)cc(NC[C@H]3CCNC[C@@H]3O)nc12` [WO2023001061, Example 29], for which the IC50 is less than 50 nM.

The compound `CC(C)c1cnn2c(NCc3nc4ccccc4s3)cc(NC[C@H]3CCNC[C@@H]3O)nc12` [WO2023001061, Example 30] returned an IC50 of less than 50 nM.

`CC(C)c1cnn2c(NCC3CCCN3C)cc(OC3CCN(C)CC3)nc12` (stereo not given) [WO2023001061, Example 8] returned an IC50 of less than 500 nM.

`CC(C)c1cnn2c(NCc3ccccc3N(C)C)cc(OC3CCN(C)CC3)nc12` [WO2023001061, Example 1] registered an IC50 of less than 50 nM.

`CC(C)c1cnn2c(NCc3nc(C4CC4)cs3)cc(NC[C@H]3CCNC[C@@H]3O)nc12` [WO2023001061, Example 48] yielded an IC50 of less than 50 nM.

`CC(C)c1cnn2c(NCC3CCCN3C)nc(OC3CCN(C)CC3)nc12` (stereo not given) [WO2023001061, Example 23]: the IC50 is less than 500 nM.

Regarding `CC(C)c1cnn2c(NCc3ccnn3C)cc(NC[C@H]3CCNC[C@@H]3O)nc12` [WO2023001061, Example 6], the IC50 is less than 50 nM.

In the case of `Cc1cc(CNc2nc(OC3CCN(C)CC3)nc3c(C(C)C)cnn23)n(C2CC2)n1` [WO2023001061, Example 28], the IC50 is less than 50 nM.

The compound `CC(C)c1cnn2c(NCc3ccnn3C)cc(OC3CCN(C)CC3)nc12` [WO2023001061, Example 7] yielded a 50% inhibitory concentration (IC50) of less than 50 nM.

The compound `CC(C)c1cnn2c(NCc3ccc4cccc(N(C)C)c4n3)nc(OC3CCN(C)CC3)nc12` [WO2023001061, Example 27] displayed an IC50 of less than 50 nM.

These data come from BindingDB's records for patent WO2023001061 (Jingrui Biopharma, 2023).
